Measurements: patent US20190183856A1, “METHODS FOR TREATING CANCER” (Macau University of Science and Technology, priority 2017, published 2019)

Experiments:
Format in all cases: cell-based, Human
HCT116 (p53+/+) cells = assay: In vitro cell proliferation assay (SRB assay) on HCT116 cells; conditions: for relative growth rate: 10 μM APTM, percentage of control
Procedure: (§1) Human colon cancer cell line HCT116 (p53+/+) was purchased from ATCC and the p53−/− HCT116 cell line was provided by Bert Vogelstein, Johns Hopkins University. Cells were cultured in McCoy's 5A medium supplemented with 10% FBS, 100 units/ml penicillin G, and 100 μg/ml streptomycin in humidified atmosphere with 5% CO2. Cells were passaged twice weekly to maintain logarithmic growth.
(§2) The anti-proliferative effects of APTM on cancer cell lines were assessed by sulforhodamine B (SRB) colorimetric assay. Cells were seeded in 96-well plates at densities of 5,000 cells per well and cultured overnight. Then cells were susceptible to APTM at indicated concentrations and cultured for indicated times. After incubation, attached cells were fixed with 50 μL cold 50% (w/v) trichloroacetic acid (TCA) for 1 hour at 4° C., washed 5 times with slow-running tap water, and stained with 100 μL 0.4% (w/v) SRB. Optical density at 515 nm (OD515) was measured using a microplate reader (Molecular Devices) after mixing the protein-bound dye with 200 μL 10 mM Tris base solution (pH 10.5). The relative cell growth rate was determined with the following equation: Relative Growth (%)=OD (treated)/OD (control). The IC50 value was defined as the concentration required for a 50% reduction in cell growth.

HCT116 p53−/− cells [1] = assay: In vitro cell proliferation assay (SRB assay) on HCT116 p53-/- cells
Procedure: as §1, §2

HCT116 cells [2] = assay: Colony formation assay; conditions: 8 days
Procedure: HCT116 cells were plated at 3,000 cells/well in six-well plates and cultured with indicated concentrations of APTM for 8 days. Cells were stained with 0.2% (w/v) crystal violet in buffered formalin for 20 minutes, and colonies were then photographed and quantified as previously described.

HCT116 cells [3] = assay: Analysis of cell cycle by flow cytometry (PI staining); conditions: 48 hours
Procedure: Cell cycle distribution was determined by staining DNA with propidium iodide (PI). Briefly, 1.0×10^6 cells were incubated with or without APTM for 48 hours. Cells were washed with cold PBS and fixed in 70% ethanol at −20° C. for 2 hours. After washing with PBS, cells were stained with cold PI solution (20 μg/ml PI and 200 μg/mI RNase in PBS) for 30 minutes at room temperature in the dark. The percentage of cells in different phases of the cell cycle was determined by flow cytometer (BD Bioscience) and analyzed using FlowJo software.

HCT116 p53+/+ cells = assay: Analysis of apoptosis by flow cytometry (Annexin V-FITC/PI); conditions: 48 hours, control 2.53%
Procedure: (§3) Annexin V-FITC/PI double staining method was employed for the apoptosis assay in HCT116 p53+/+ and HCT116 p53−/− cells (1×10^6/well, 6-well plate). After 48 hours of treatment with APTM, cells were harvested in 15 ml centrifuge tubes by gentle scraping followed by centrifugation at 300×g for 5 minutes at room temperature. Cell suspension was washed two times with cold PBS by centrifugation at 300×g for 5 minutes at room temperature. Then cells were harvested, washed twice with cold PBS, and resuspended in 1×binding buffer (100 μL). Cells were transferred into a 1.5 ml micro-centrifuge tubes and stained with propidium iodide (5 μL) and FITC annexin V (5 μL). Cells were briefly vortexed after incubation for 15 minutes in the dark at room temperature. Then cells were filtered and analyzed by flow cytometry. Total apoptotic cells (FITC to Annexin V positive) were counted.

HCT116 p53−/− cells [4] = assay: Analysis of apoptosis by flow cytometry (Annexin V-FITC/PI), p53-deficient cells; conditions: 48 hours
Procedure: as §3

HCT116 cells [5] = assay: Assessment of cell morphological changes (Hoechst 33258 staining); conditions: HCT116 cells, 3, 10 and 30 μM, 48 hours
Procedure: (§4) Cells were plated in 6-well plates (200,000 cells/well) and treated with indicated concentrations of APTM. After incubation for 48 hours, cells were collected, washed with PBS and stained with Hoechst 33258 ([…]) in buffered formalin solution containing 5.6% NP-40. Apoptotic and living cells were viewed through DAPI filter of fluorescence inverted microscope (Leica DM2500 Fluorescence Microscope) at 400× magnifications.

HCT116 p53−/− cells [6] = assay: Assessment of cell morphological changes (Hoechst 33258 staining), p53-deficient cells; conditions: highest concentration of 30 μM, 48 hours
Procedure: as §4

[7] = tested on: p53/Bax/cPARP signaling axis in HCT116 cells; assay: Western blotting of apoptosis markers p53, Bax, cPARP; conditions: 48 hours
Procedure: (§5) HCT116 cells were treated with APTM at indicated concentrations for 48 hours, and harvested via trypsinization. Protein samples were prepared by scratching cells in RIPA buffer containing protease inhibitor cocktail (Roche) and diluted in SDS-PAGE protein sample buffer. Samples were heated for 5 minutes at 100° C. Protein concentrations were measured using Direct Detect® Infrared Spectrometer (Millipore, USA) according to the manufacturer's instructions. Equal amount of proteins were loaded on 4-20% SDS-polyacrylamide (PAGE) gel. After electrophoresis, gels were transferred to a PVDF membrane (Millipore) and incubated with primary antibodies overnight at 4° C. The membranes were then washed with TBST and incubated with horseradish peroxidase-conjugated anti-rabbit or anti-mouse antibodies (1:10000, Santa Cruz, Calif., USA) for 45 min at room temperature. Proteins were visualized with SuperSignal West Dura Extended Duration Substrate or SuperSignal West Pico Chemiluminescent Substrate (Thermo Scientific) using the Amersham Imager 600 western blotting system.

[8] = tested on: Bax and cPARP expression in HCT116 p53−/− cells; assay: Western blotting of apoptosis markers, p53-deficient cells; conditions: different APTM concentrations
Procedure: as §5

Compound `Cc1cccc(C)c1Nc1sc(C(=O)c2ccc(F)cc2)c(N)c1S(=O)(=O)c1ccccc1` [APTM, [3-Amino-5-[(2,6-dimethylphenyl)amino]-4-(phenylsulfonyl)-2-thienyl](4-fluorophenyl)methanone] has a relative growth rate (HCT116 (p53+/+) cells; 24 hours) of 76.36%, a relative growth rate (HCT116 (p53+/+) cells; 72 hours) of 24.57% and an IC50 (HCT116 (p53+/+) cells; Homo sapiens, HCT-116, 48 hours, SRB assay, read-out: IC50 value (50% reduction in cell growth)) of 6.57 µM. The “resistance of p53 deficient cells versus HCT116 p53+/+ cells (IC50 ratio)” value (HCT116 p53−/− cells [1]; HCT116 p53−/− vs HCT116 p53+/+) was “more than 5 fold”, the IC50 (HCT116 p53−/− cells [1]; Homo sapiens, HCT-116, HCT116 p53−/− cells, 33.3 μM highest concentration tested, read-out: IC50 value (50% reduction in cell growth)) was > 33.3 µM and the Colony formation ability (HCT116 cells [2]; 3.0 μM) was “significantly decreased”. The Colony formation ability (HCT116 cells [2]; 10.0 μM) was “almost vanished”, the “sub-G0/G1 fraction of cells” value (HCT116 cells [3]; concentration-dependent) was “increased” and the “proportions of cells in G0/G1, S and G2/M phases” value (HCT116 cells [3]; different concentrations) was “almost unchanged”. The “percentage of apoptotic cells (annexin V positive)” value (“percentage of apoptotic cells” below) (HCT116 p53+/+ cells; 3 μM) was 7.67%, the “percentage of apoptotic cells” value (HCT116 p53+/+ cells; 10 μM) was 20.86% and the “percentage of apoptotic cells” value (HCT116 p53+/+ cells; 30 μM) was 43.7%. The “APTM induced apoptosis (annexin V-FITC/PI flow cytometry)” value (HCT116 p53−/− cells [4]) was “resistant”, the “apoptotic morphological changes (Hoechst staining)” value (HCT116 cells [5]) was “typical morphological characteristics of apoptosis” and the “nuclear staining / apoptotic morphological changes (Hoechst staining)” value (HCT116 p53−/− cells [6]) was “reserved normal nuclear staining”. The Bax level [7] was “induced”, the “cleaved nuclear poly(ADP-ribose) polymerase (cPARP) level” value [7] was “concentration-dependently induction” and the p53 protein level [7] was “substantially induced”. For the same compound, the “Bax and cPARP expression” value [8] was “blunted”.
